# Assay results taken from patent publication US20220296613A1, “FOOD-INDEPENDENT DOSING OF CV-10155 TO TREAT GABAA DISORDERS” (priority 2021, published 2022).
# Where two headings read alike, the source gives them in different places.
# [1] = HV, 60 mg evening dosing (n = 12)
# [2] = humans, 60 mg, day 7 MAD, morning dosing, fasted
# [3] = humans, 60 mg, evening, fed state, N = 9
# [4] = humans, 60 mg, morning, fasted state, N = 9
# [5] = humans, evening, fed state, subject a, dosing day 1
# [6] = humans, evening, fed state, subject l, dosing day 1
# [7] = humans, evening, fed state, subject o, dosing day 3
# [8] = humans, evening, fed state, subject p, dosing day 2
# [9] = humans, evening, fed state, subject p, dosing day 7
# [10] = humans, evening, fed state, subject p, dosing day 8
# [11] = humans, evening, fed state, subject v, dosing day 4
smiles,measurement,setting,value
"C[C@@]1(O)CC[C@@]2(C)[C@@H](CC[C@@H]3[C@@H]2CC[C@]2(C)[C@@H](C(=O)Cn4cc(C#N)cn4)CC[C@@H]32)C1 [CV-10155, 1-[2-[(3R,5S,8R,9S,10S,13S,14S,17S)-3-hydroxy-3,10,13-trimethyl-1,2,4,5,6,7,8,9,11,12,14,15,16,17-tetradecahydrocyclopenta[a]phenanthren-17-yl]-2-oxoethyl]pyrazole-4-carbonitrile]","Dizziness, AEs % of subjects",[1],16.7%
same,"Headache, AEs % of subjects",[1],8.3%
same,"Somnolence, AEs % of subjects",[1],8.3%
same,Racc AUC,"human, in vivo, 60 mg",1.84
same,ratio of Cmax/trough on day 7,"humans, 60 mg daily in the evening in a fed state",3.47
same,ratio of Cmax/trough on day 7,"humans, 60 mg daily in the morning in a fasted state",6.09
same,tolerability profile compared to PRAX-114 and Sage-217,"humans, 60 mg dosed in the evening",favorable tolerability profile compared to PRAX-114 and one comparable to that of Sage-217
same,exposure levels in humans vs 30 mg doses of Sage-217,"humans, 60 mg doses",higher exposure levels
same,"absorption, morning fasted vs evening fed","humans, 60 mg orally once per day for seven days",no significant difference in absorption
same,Cmin,[2],41.5 ng/mL
same,Ratio (Cmax/Cmin),[2],6.07
same,"AE Back pain (Musculoskeletal and connective tissue disorders), #",[3],1
same,"AE Bloating (Gastrointestinal disorders), #",[3],1
same,"AE Dizziness (Nervous system disorders), #",[3],1
same,"AE Headache (Nervous system disorders), #",[3],2
same,"AE Sleepiness (Nervous system disorders), #","humans, 60 mg, evening, fed state, N = 9, printed on two separate lines",1
same,"AE Dizziness (Nervous system disorders), #",[4],1
same,"AE Feeling sleepy (Nervous system disorders), #",[4],1
same,"AE Feeling tired (General disorders and administration site conditions), #",[4],2
same,"AE Headache (Nervous system disorders), #",[4],2
same,"AE Sleepiness (Nervous system disorders), #",[4],9
same,"AE Tiredness (General disorders and administration site conditions), #",[4],3
same,Somnolence: duration,[5],10.62 h
same,Somnolence: severity,[5],Mild
same,Headache: duration,[6],13.25 h
same,Headache: onset from dose,[6],pre-dose
same,Headache: severity,[6],Mild
same,Abdominal distension: duration,[7],06.50 h
same,Abdominal distension: severity,[7],Mild
same,Dizziness: duration,[8],20.50 h
same,Dizziness: severity,[8],Mild
same,Dizziness: duration,[9],13.00 h
same,Dizziness: severity,[9],Mild
same,Headache: duration,[10],14.50 h
same,Headache: severity,[10],Moderate
same,Back pain: duration,[11],39.25 h
same,Back pain: severity,[11],Mild
same,adverse effects that interfere with sleeping,"humans, oral administration in the evening to fed subjects",does not produce adverse effects that interfere with sleeping
